What was measured:
Echinochloa crus-galli = assay: Paddy herbicidal activity test; type: in vivo; settings: irrigated paddy pot, treated at 3.5 leaf stage of Echinochloa crus-galli, 30 days
Method: (§1) Rice paddy soil was filled into a 1/10000 are pot followed by the addition of suitable amounts of water and chemical fertilizer, kneading, seeding with Echinochloa crus-galli, Monochoria vaginalis and Scirpus juncoides and maintaining in an irrigated state at a water depth of 3 cm. Wettable powder of Target Compound (I) shown in Table 1 prepared in compliance with the preparation examples were diluted with a suitable amount of water, rice plants in the 2.0 leaf stage were transplanted during 3.5 leaf stage of Echinochloa crus-galli, and treated by dropping in chemical in the prescribed amount per are using a pipette. After treating for 30 days in a glass greenhouse at an average atmospheric temperature of 30° C., the herbicidal efficacy thereof was investigated. Evaluation of herbicidal efficacy was carried out by comparing growth inhibition rate (%) with an untreated group, while evaluation of phytotoxicity was carried out by comparing growth inhibition rate (%) with the state of a complete eradication group, and were evaluated at 11 levels indicated below. [table]

Monochoria vaginalis = assay: Paddy herbicidal activity test; type: in vivo; settings: irrigated paddy pot, 30 days
Method: as §1

Scirpus juncoides = assay: Paddy herbicidal activity test; type: in vivo; settings: irrigated paddy pot, 30 days
Method: as §1

Rice plants = assay: Paddy herbicidal activity test, phytotoxicity to transplanted rice; type: in vivo; settings: rice transplanted at 2.0 leaf stage, 30 days
Method: as §1

Amaranthus retroflexus [1] = assay: Farming soil treatment test; type: in vivo; settings: soil surface spray prior to weed growth, 30 days
Method: (§2) Evaluation of herbicidal efficacy was carried out by comparing growth inhibition rate (%) with an untreated group, while evaluation of phytotoxicity was carried out by comparing growth inhibition rate (%) with the state of a complete eradication group, and were evaluated at 11 levels indicated below. [table] Field soil was filled into a 1/6000 are pot followed by seeding with Digitaria ciliaris, Chenopodium album and Amaranthus retroflexus and covering with soil. Wettable powder of compounds of formula (I) shown in Table 1 prepared in compliance with the preparation examples were diluted with water to the prescribed amount of chemical and uniformly sprayed onto each soil surface layer using 10 liters of sprayed water per are prior to weed growth following seeding. After treating for 30 days in a glass greenhouse at an average atmospheric temperature of 30° C., the herbicidal efficacy thereof was investigated. Evaluation of herbicidal efficacy was carried out in the same manner as the above-mentioned Test Example 1.

Chenopodium album [2] = assay: Farming soil treatment test; type: in vivo; settings: soil surface spray prior to weed growth, 30 days
Method: as §2

Digitaria ciliaris [3] = assay: Farming soil treatment test; type: in vivo; settings: soil surface spray prior to weed growth, 30 days
Method: as §2

Amaranthus retroflexus [4] = assay: Weed foliar treatment test; type: in vivo; settings: foliar spray, 3 weeks
Method: (§3) Evaluation of herbicidal efficacy was carried out by comparing growth inhibition rate (%) with an untreated group, while evaluation of phytotoxicity was carried out by comparing growth inhibition rate (%) with the state of a complete eradication group, and were evaluated at 11 levels indicated below. [table] Soil was filled into a 1/6000 are pot followed by seeding with Digitaria ciliaris, Chenopodium album and Amaranthus retroflexus, covering with soil, and cultivating in a glass greenhouse at an average atmospheric temperature of 25° C. Wettable powder of Target Compound (I) shown in Table 1 prepared in compliance with the preparation examples were diluted with water to the prescribed amount of chemical and uniformly sprayed onto the weeds using 15 liters of sprayed water per are when Digitaria ciliaris had grown to the 1.0 to 2.0 leaf stage. After treating for 3 weeks in a glass greenhouse at an average atmospheric temperature of 25° C., the herbicidal efficacy thereof was investigated, Evaluation of herbicidal efficacy was carried out in the same manner as the above-mentioned Test Example 1.

Chenopodium album [5] = assay: Weed foliar treatment test; type: in vivo; settings: foliar spray, 3 weeks
Method: as §3

Digitaria ciliaris [6] = assay: Weed foliar treatment test; type: in vivo; settings: foliar spray at 1.0 to 2.0 leaf stage of Digitaria ciliaris, 3 weeks
Method: as §3

Structure (SMILES)	herbicidal efficacy (growth inhibition rate level) Echinochloa crus-galli (Echinochloa crus-galli; 1g a.i./10a)	herbicidal efficacy (growth inhibition rate level) Echinochloa crus-galli (Echinochloa crus-galli; 5g a.i./10a)	herbicidal efficacy (growth inhibition rate level) Monochoria vaginalis (Monochoria vaginalis; 1g a.i./10a)	herbicidal efficacy (growth inhibition rate level) Monochoria vaginalis (Monochoria vaginalis; 5g a.i./10a)	herbicidal efficacy (growth inhibition rate level) Scirpus juncoides (Scirpus juncoides; 1g a.i./10a)	herbicidal efficacy (growth inhibition rate level) Scirpus juncoides (Scirpus juncoides; 5g a.i./10a)	phytotoxicity (growth inhibition rate level) Rice plants (Rice plants; 1g a.i./10a)	phytotoxicity (growth inhibition rate level) Rice plants (Rice plants; 5g a.i./10a)	herbicidal efficacy (growth inhibition rate level) Amaranthus retroflexus (Amaranthus retroflexus [1]; 5g a.i./10a)	herbicidal efficacy (growth inhibition rate level) Amaranthus retroflexus (Amaranthus retroflexus [1]; 10g a.i./10a)	herbicidal efficacy (growth inhibition rate level) Chenopodium album (Chenopodium album [2]; 5g a.i./10a)	herbicidal efficacy (growth inhibition rate level) Chenopodium album (Chenopodium album [2]; 10g a.i./10a)	herbicidal efficacy (growth inhibition rate level) Digitaria ciliaris (Digitaria ciliaris [3]; 5g a.i./10a)	herbicidal efficacy (growth inhibition rate level) Digitaria ciliaris (Digitaria ciliaris [3]; 10g a.i./10a)	herbicidal efficacy (growth inhibition rate level) Amaranthus retroflexus (Amaranthus retroflexus [4]; 5g a.i./10a)	herbicidal efficacy (growth inhibition rate level) Amaranthus retroflexus (Amaranthus retroflexus [4]; 10g a.i./10a)	herbicidal efficacy (growth inhibition rate level) Chenopodium album (Chenopodium album [5]; 5g a.i./10a)	herbicidal efficacy (growth inhibition rate level) Chenopodium album (Chenopodium album [5]; 10g a.i./10a)	herbicidal efficacy (growth inhibition rate level) Digitaria ciliaris (Digitaria ciliaris [6]; 5g a.i./10a)	herbicidal efficacy (growth inhibition rate level) Digitaria ciliaris (Digitaria ciliaris [6]; 10g a.i./10a)	further results
CC(Nc1c(C#N)cnn1-c1nn2c(c1Cl)CCCC2)C1CC1 (stereo not shown) [Compound 9, 1-(3-chloro-4,5,6,7-tetrahydropyrazolo[1,5-a]pyridin-2-yl)-5-(1-cyclopropylethylamino)pyrazole-4-carbonitrile]	9 (9: 90% to less than 100%)	9 (9: 90% to less than 100%)	8 (8: 80% to less than 90%)	9 (9: 90% to less than 100%)	8 (8: 80% to less than 90%)	8 (8: 80% to less than 90%)	0 (0 (exponent): 0% to less than 10% (growth inhibition rate))	1 (1: 10% to less than 20%)	10 (10: 100%)	10 (10: 100%)	10 (10: 100%)	10 (10: 100%)	10 (10: 100%)	10 (10: 100%)	10 (10: 100%)	10 (10: 100%)	10 (10: 100%)	10 (10: 100%)	10 (10: 100%)	10 (10: 100%)	melting point: 104 to 108 °C
N#Cc1cnn(-c2nn3c(c2Cl)CCCC3)c1N(CC1CC1)C(=O)C(F)(F)F [Compound 2, N-(1-(3-chloro-4,5,6,7-tetrahydropyrazolo[1,5-a]pyridin-2-yl)-4-cyanopyrazol-5-yl)-N-(cyclopropylmethyl)-2,2,2-trifluoroacetoamide]	9 (9: 90% to less than 100%)	9 (9: 90% to less than 100%)	8 (8: 80% to less than 90%)	9 (9: 90% to less than 100%)	8 (8: 80% to less than 90%)	8 (8: 80% to less than 90%)	0 (0 (exponent): 0% to less than 10% (growth inhibition rate))	1 (1: 10% to less than 20%)	10 (10: 100%)	10 (10: 100%)	10 (10: 100%)	10 (10: 100%)	10 (10: 100%)	10 (10: 100%)	10 (10: 100%)	10 (10: 100%)	10 (10: 100%)	10 (10: 100%)	10 (10: 100%)	10 (10: 100%)	melting point: 87.3 to 101 °C
N#Cc1cnn(-c2nn3c(c2Cl)CCCC3)c1NC1CC1 [Control agent 4.84, reference compound]	3 (3: 30% to less than 40%)	5 (5: 50% to less than 60%)	2 (2: 20% to less than 30%)	3 (3: 30% to less than 40%)	3 (3: 30% to less than 40%)	4 (4: 40% to less than 50%)	0 (0 (exponent): 0% to less than 10% (growth inhibition rate))	2 (2: 20% to less than 30%)	6 (6: 60% to less than 70%)	6 (6: 60% to less than 70%)	6 (6: 60% to less than 70%)	6 (6: 60% to less than 70%)	5 (5: 50% to less than 60%)	5 (5: 50% to less than 60%)	6 (6: 60% to less than 70%)	7 (7: 70% to less than 80%)	6 (6: 60% to less than 70%)	7 (7: 70% to less than 80%)	5 (5: 50% to less than 60%)	6 (6: 60% to less than 70%)	
N#Cc1cnn(-c2nn3c(c2Br)CCCC3)c1NCC1CC1 [Compound 147]	8 (8: 80% to less than 90%)	9 (9: 90% to less than 100%)	7 (7: 70% to less than 80%)	8 (8: 80% to less than 90%)	7 (7: 70% to less than 80%)	9 (9: 90% to less than 100%)	0 (0 (exponent): 0% to less than 10% (growth inhibition rate))	0 (0 (exponent): 0% to less than 10% (growth inhibition rate))	10 (10: 100%)	10 (10: 100%)	10 (10: 100%)	10 (10: 100%)	10 (10: 100%)	10 (10: 100%)	10 (10: 100%)	10 (10: 100%)	10 (10: 100%)	10 (10: 100%)	10 (10: 100%)	10 (10: 100%)	

Reference: patent publication US9556183B2, “Substituted pyrazolylpyrazole derivative and use of same as herbicide” (KYOYU AGRI CO., LTD., priority 2013, dated 2017)
